Assay results reported in ChEMBL document CHEMBL1139641 (Bioorg Med Chem Lett, 2005).

Legend:
[1] = target: Calcium/calmodulin-dependent protein kinase type II subunit alpha (Rattus norvegicus, UniProt P11275); test: Displacement of [3H]NCS-382 (16 nM) from GHB receptor of rat cerebrocortical membranes; format: cell membranes, Membrane
[2] = target: GABA B receptor (Rattus norvegicus) (UniProt Q9Z0U4+O88871); test: Percent displacement of [3H]GABA (1 mM) from Gamma-aminobutyric acid B receptor of rat cerebellum; format: tissue-based
[3] = target: GABA-A receptor; anion channel (Rattus norvegicus) (UniProt O09028+P15431+P18506+P18508+P19969+P20236+P23574+P23576+P28471+P28473+P30191+P62813+P63079+P63138+Q91ZM7+Q9ES14); test: Percent displacement of [3H]GABA (1 mM) from Gamma-aminobutyric acid A receptor of rat cerebral cortex; format: tissue-based

Chain of Calcium/calmodulin-dependent protein kinase type II subunit alpha (P11275 whole entry): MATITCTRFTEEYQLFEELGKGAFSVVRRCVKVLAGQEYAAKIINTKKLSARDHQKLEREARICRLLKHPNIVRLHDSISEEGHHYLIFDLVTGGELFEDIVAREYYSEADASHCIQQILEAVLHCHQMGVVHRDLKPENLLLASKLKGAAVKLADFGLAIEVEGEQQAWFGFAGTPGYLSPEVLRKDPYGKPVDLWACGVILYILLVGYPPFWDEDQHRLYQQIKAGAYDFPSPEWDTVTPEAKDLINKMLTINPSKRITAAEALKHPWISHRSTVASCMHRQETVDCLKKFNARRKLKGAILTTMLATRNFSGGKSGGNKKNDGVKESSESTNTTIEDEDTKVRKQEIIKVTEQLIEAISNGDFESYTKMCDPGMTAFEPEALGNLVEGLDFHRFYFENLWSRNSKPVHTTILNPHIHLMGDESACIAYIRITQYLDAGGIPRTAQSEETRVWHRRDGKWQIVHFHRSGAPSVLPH

Row | SMILES | IC50 [1] [µM] | inhibition [2] [%] | inhibition [3] [%]
1 | O=C(O)Cc1cccc(O)c1 [3-Hydroxyphenylacetate] | 12 | 14 | 44.2
2 | O=C(O)Cc1cccc(OCc2ccccc2)c1 | 46 | -4.7 | 11
3 | O=C(O)Cc1cccc(OCCCc2ccccc2)c1 | 4.5 | 6 | 17.4
4 | O=C(O)Cc1cccc(OCCc2ccccc2)c1 | 8.3 | -1.2 | 15.1
5 | O=C(O)Cc1cccc(Oc2ccccc2)c1 | 16.3 | -5.5 | 2.7
6 | O=C(O)CCCOc1ccccc1 | 210 | 6.5 | 6.3
7 | O=C(O)CCCO |  | 41.1 | 35.5
